Test results as given in PMC9323733, “Efficacy of Vafidemstat in Experimental Autoimmune Encephalomyelitis Highlights the KDM1A/RCOR1/HDAC Epigenetic Axis in Multiple Sclerosis” (Pharmaceutics, 2022).
Entries after “also recorded” stand apart in the source; their conditions may differ.

What was measured:
[1] = biological target: T1, recombinant HDAC2 (Homo sapiens, UniProt Q92769); assay: HDAC2 fluorimetric biochemical assay
T1 construct: purchased BPS Bioscience 50002
Method: HDAC2 activity was determined using a fluorimetric assay at BPS Bioscience (San Diego, CA, USA). Compounds were dissolved in DMSO (Sigma), and serial dilutions were further diluted in HDAC assay buffer (BPS). These working solutions were incubated in duplicate at room temperature for 3 h in a mixture containing HDAC assay buffer, BSA (Fisher Scientific), and recombinant HDAC2 (BPS). The enzymatic reactions were initiated by the addition of a fluorogenic, acetylated peptide substrate (BPS) and proceeded for 30 min at 37 °C. Then, HDAC assay developer (BPS) was added, and after further incubation at room temperature, fluorescence intensity was measured at an excitation of 360 nm and an emission of 460 nm using a Tecan Infinite M1000 microplate reader. Trichostatin A (TSA, Selleckchem, Houston, TX, USA) was used as a reference inhibitor.
For the biochemical assays, the fluorescence signal relative to the background (assay mixture in the absence of the enzyme) was subtracted from each fluorescent intensity data. Activity in the presence of compound was expressed as a percentage of fluorescence intensity in the absence of the compound.

[2] = Drug exposure in male and female animals; type: in vivo; conditions: mice and rats
From the text: Sex and Gender in this Research
Multiple sclerosis (MS) is more prevalent in women than men, but male patients develop more severe clinical symptoms and deteriorate faster than female patients. With respect to the animal models for MS used in this research, t he following aspects were considered: […]
and rats, which were not deemed relevant for this research. Previous efficacy studies in the […]
animals usedand perfo rm separate studies for male an female mice in MS models.
MOG35-55 induced EAE in C57BL/6 mice:
No differences have been observed in disease incidence or severity between sexes in MOG35-55 induced EAE in C57BL/6 mice in a study by Papenfuss et al. (J Neuroimmunol, 2004;150(1-2):59-69, therefore it was not deemed justified to increase the number of animals used in the studies to study males and females independently in the experiments reported in this […]
Although a higher incidence and severity has been reported for male than female SJL mice in the TMEV model (Alley et al. Exp Neurol, 2003 Mar;180(1):14-24), females are used in mo st studies because the strain of SJL male mice are very aggressive and display a high level of dominance and inflict wounds to their housemates. […]
Hypothetical sexual dimorphism in spinal cord organotypic cultures and chr onic excitotoxicity treatment derived from 8 day old Sprague-Dawley male or female pups was not assessed. […]

[3] = test system: SMI-32 positive motoneurons in spinal cord explants; assay: Spinal cord organotypic cultures, chronic excitotoxicity (THA); type: cell-based, rat; conditions: ORY-2001 5, 25 and 125 nM, THA 100 µM
Method: Lumbar spinal cords were aseptically obtained from 8-day-old Sprague-Dawley rat pups previously euthanized by pentobarbital overdose. The tissue was placed in ice-cold high glucose containing (6.4 mg/mL) Gey’s Balanced Salt Solution (GBSS). Meninges and roots were removed, and the spinal cord was transversely sectioned into 350 µm thick slices with a McIlwain Tissue Chopper. Four slices were carefully transferred onto 30-mm-diameter Millicell-CM membranes (0.4 µm, Millipore, Billerica, MA, USA) into a 6-well plate (35-mm-diameter, Falcon) containing 1 mL of incubation medium [50% (v/v) minimal essential medium (MEM), 25 mM Hepes, 25% (v/v) heat- inactivated horse serum, 2 mM glutamine and 25% (v/v) Hank’s Balanced Salt Solution (HBSS) supplemented with 25.6 mg/mL glucose; pH 7.2. Cultures were allowed to stabilize for 1 week at 37 °C in a 5% CO2/95% air humidified environment, and thereafter medium was changed twice per week. After 7 days of the explant culture, chronic glutamate excitotoxicity was induced by exposure at DL-threo-β-hydroxyaspartic acid (THA; 100 µM; Sigma-Aldrich, Saint Louis, MO, USA). […] Motoneurons, identified by SMI-32 immunostaining and localization in the ventral horn, were counted by using the Cell Counter plugin of ImageJ software. A minimum of 12 sections were evaluated for each experimental condition.

[4] = biological target: T2, human S1P1 receptor (Homo sapiens, UniProt P21453); assay: CellKey impedance assay in CHO cells, agonistic and antagonistic effect; type: cell-based; conditions: GPCR based impedance assays
T2 construct: host or cells: CHO cells
T2 sequence (P21453 whole entry): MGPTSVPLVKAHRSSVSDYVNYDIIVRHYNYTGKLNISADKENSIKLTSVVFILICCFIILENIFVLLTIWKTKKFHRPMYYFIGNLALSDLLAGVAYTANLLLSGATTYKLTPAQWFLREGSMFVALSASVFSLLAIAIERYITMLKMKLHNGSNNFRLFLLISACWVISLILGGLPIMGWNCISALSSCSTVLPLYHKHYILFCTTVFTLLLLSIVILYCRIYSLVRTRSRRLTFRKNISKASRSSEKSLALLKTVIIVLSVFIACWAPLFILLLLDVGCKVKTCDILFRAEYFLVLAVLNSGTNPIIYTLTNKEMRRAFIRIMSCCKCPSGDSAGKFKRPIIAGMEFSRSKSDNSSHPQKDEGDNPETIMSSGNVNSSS
Method: Cell on impedance modulation, using the CellKey (Cellular Dielectric Spectroscopy) detection method (CellKey 96, MDS Sciex, Concord, ON, Canada) at Eurofins Pharma Discovery Services (Celle-Lévescault, France). CHO cells were seeded onto a 96-well plate at 15.104 cells/well in HBSS buffer (Invitrogen), 20 mM HEPES (Invitrogen), 10% FCS (Invitrogen), and 0.1% BSA (Sigma), allowed to equilibrate for 60 min at 28 °C. DMSO solutions of compounds were diluted in HBSS and 0.1% BSA. Plates were placed onto the system, and measurements were made at a temperature of 28 °C. To measure the agonistic effect, compounds and controls in duplicate were added simultaneously to all of the wells using an integrated fluidics system. Impedance measurements were monitored for 10 min after ligand addition. […] To measure the antagonistic effect, compounds and controls in duplicate were pre-incubated for 15 min before the addition of the reference agonist S1P at 0.01 µM (EC80). Impedance measurements were monitored for 10 min.
Evaluation of the agonistic (a) and antagonist (b) effect of the compounds on the human S1P1 receptor. […] Data are expressed as percentage of control (no compound) activity, n = 2. TSA was used as a control; (d) Cellular HDAC activity assay. […] SAHA was used as a control. Ponceau S staining was used as loading control. Veh: Vehicle. […] TSA: Trichostatin A. SAHA: suberoylanilide hydroxamic acid.

T1 sequence (Q92769 whole entry): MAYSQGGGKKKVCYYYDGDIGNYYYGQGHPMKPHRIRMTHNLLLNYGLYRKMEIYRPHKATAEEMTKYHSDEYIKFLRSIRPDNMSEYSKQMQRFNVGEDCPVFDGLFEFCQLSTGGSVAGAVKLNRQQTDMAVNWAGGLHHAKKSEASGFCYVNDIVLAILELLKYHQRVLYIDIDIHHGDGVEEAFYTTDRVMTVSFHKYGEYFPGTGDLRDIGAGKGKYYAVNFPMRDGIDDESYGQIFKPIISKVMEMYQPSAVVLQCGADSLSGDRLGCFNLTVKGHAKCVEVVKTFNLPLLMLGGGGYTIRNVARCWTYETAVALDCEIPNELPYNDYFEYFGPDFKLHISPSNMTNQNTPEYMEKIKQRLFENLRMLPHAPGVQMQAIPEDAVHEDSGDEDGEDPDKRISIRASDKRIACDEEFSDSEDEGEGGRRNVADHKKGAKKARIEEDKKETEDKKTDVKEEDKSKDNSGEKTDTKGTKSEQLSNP

| SMILES | impact on recombinant HDAC2 activity [1] | difference of exposure between male and female animals [2] | protection of motoneurons compared with riluzole (5 µM) [3] | survival of SMI32 positive motoneurons challenged with THA ([3]; to 28 DIV) | agonist and antagonist activity at S1P1 receptor [4] | agonist and antagonist activity at S1P1 receptor ([4]; listed as vafidemstat) |
| --- | --- | --- | --- | --- | --- | --- |
| CCCCCCCCc1ccc(CCC(N)(CO)CO)cc1 [FTY720, Fingolimod, reference compound] | did not inhibit HDAC; also recorded: unable to confirm the previous studies reporting that FTY720 or FTY720-P had any significant impact | – | – | – | – | – |
| Nc1nnc(CN[C@@H]2C[C@H]2c2ccc(OCc3ccccc3)cc2)o1 [ORY-2001] | – | Minor differences | outperformed the effect exerted by riluzole | protected the motoneurons from chronic excitotoxic stress at all doses tested | neither ORY-2001 nor ORY-LSD1 (at concentrations well above those needed to fully inhibit KDM1A) showed any activity | does not target the S1PR |
